# Like-named read-outs stand apart in the source and are kept apart here.
# Tested on: patients with HD
# 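Further: UHDRS Total Functional Capacity items for finances and ADL, each scored 0 to 3, where 3 means normal function and 0 means unable (finances) or total care (ADL).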
smiles,measurement,setting,value
"CCCN1CCC(c2cccc(S(C)(=O)=O)c2)CC1 [pridopidine, 4-[3-(methylsulfonyl)phenyl]-1-propyl-piperidine]","Δ to placebo: UHDRS TFC Finance and ADL score, change from baseline","67.5 mg bid, CAG Repeats <44 and BL TMS 1st 3 Qs, week 26",0.18
same,"Δ to placebo: UHDRS TFC Finance and ADL score, change from baseline","67.5 mg bid, TMS 1st 2Qs, week 26",0.1
same,"Δ to placebo: UHDRS TFC Finance and ADL score, change from baseline","67.5 mg bid, TMS 1st 2Qs, week 52",0.25
same,"Δ to placebo: UHDRS TFC Finance and ADL score, change from baseline","67.5 mg bid, TMS 1st 3Qs, week 26",0.04
same,"Δ to placebo: UHDRS TFC Finance and ADL score, change from baseline","67.5 mg bid, TMS 1st 3Qs, week 52",−0.03
same,"Δ to placebo: UHDRS TFC Finance and ADL score, change from baseline","67.5 mg bid, TMS 1st Q, week 26",0.5
same,"Δ to placebo: UHDRS TFC Finance and ADL score, change from baseline","67.5 mg bid, TMS 1st Q, week 52",0.61
same,"Change from baseline in UHDRS TFC Finance ADL, Δ to placebo","67.5 mg bid, Week 26, ALL",0.16
same,"UHDRS TFC Finance ADL, change from baseline, Δ to placebo","67.5 mg bid, Week 26, BL TFC<7, p value 0.8408",−0.06
same,"UHDRS TFC Finance ADL, change from baseline, Δ to placebo","67.5 mg bid, Week 26, BL TFC≥7, p value 0.0817",0.32
same,"Change from baseline in UHDRS TFC Finance ADL, Δ to placebo","67.5 mg bid, Week 26, Stage 1 BL TFC 11-13",0.65
same,"Change from baseline in UHDRS TFC Finance ADL, Δ to placebo","67.5 mg bid, Week 26, Stage 2 BL TFC 7-10 (FIG. 11c)",0.26
same,"Change from baseline in UHDRS TFC Finance ADL, Δ to placebo","67.5 mg bid, Week 26, Stage 2 BL TFC 7-10 (FIG. 11f)",0.54
same,"Change from baseline in UHDRS TFC Finance ADL, Δ to placebo","67.5 mg bid, Week 52, ALL",0.1
same,"UHDRS TFC Finance ADL, change from baseline, Δ to placebo","67.5 mg bid, Week 52, BL TFC<7, p value 0.497",−0.25
same,"UHDRS TFC Finance ADL, change from baseline, Δ to placebo","67.5 mg bid, Week 52, BL TFC≥7, p value 0.1926",0.27
same,"Change from baseline in UHDRS TFC Finance ADL, Δ to placebo","67.5 mg bid, Week 52, Stage 1 BL TFC 11-13",−0.18
same,"Δ to placebo: UHDRS TFC Finance and ADL score, change from baseline","90 mg bid, BL CAG Repeat >44, week 26",0.67
same,"Δ to placebo: UHDRS TFC Finance and ADL score, change from baseline","90 mg bid, BL TFC≥9, week 26",0.51
same,"Δ to placebo: UHDRS TFC Finance and ADL score, change from baseline","90 mg bid, BL TFC≥9 and BL TMS 1st 3 Qs, week 26",0.45
same,"Δ to placebo: UHDRS TFC Finance and ADL score, change from baseline","90 mg bid, BL TFC≥9 and CAG Repeat >44, week 26",0.83
same,"Δ to placebo: UHDRS TFC Finance and ADL score, change from baseline","90 mg bid, BL TFC≥9 and CAG Repeats <44 and BL TMS 1st 3 Qs, week 26",0.81
same,"Δ to placebo: UHDRS TFC Finance and ADL score, change from baseline","90 mg bid, BL TFC≥9 or CAG Repeat >44, week 26",0.52
same,"Δ to placebo: UHDRS TFC Finance and ADL score, change from baseline","90 mg bid, CAG Repeats <44 and BL TMS 1st 3 Qs, week 26",0.6
same,"Δ to placebo: UHDRS TFC Finance and ADL score, change from baseline","90 mg bid, TMS 1st 2Qs, week 26",0.26
same,"Δ to placebo: UHDRS TFC Finance and ADL score, change from baseline","90 mg bid, TMS 1st 2Qs, week 52",0.47
same,"Δ to placebo: UHDRS TFC Finance and ADL score, change from baseline","90 mg bid, TMS 1st 3Qs, week 26",0.35
same,"Δ to placebo: UHDRS TFC Finance and ADL score, change from baseline","90 mg bid, TMS 1st 3Qs, week 52",0.21
same,"Δ to placebo: UHDRS TFC Finance and ADL score, change from baseline","90 mg bid, TMS 1st Q, week 26",0.63
same,"Δ to placebo: UHDRS TFC Finance and ADL score, change from baseline","90 mg bid, TMS 1st Q, week 52",0.57
same,"Change from baseline in UHDRS TFC Finance ADL, Δ to placebo","90 mg bid, Week 26, ALL",0.31
same,"UHDRS TFC Finance ADL, change from baseline, Δ to placebo","90 mg bid, Week 26, BL TFC<7, p value 0.3747",0.28
same,"UHDRS TFC Finance ADL, change from baseline, Δ to placebo","90 mg bid, Week 26, BL TFC≥7, p value 0.0093",0.47
same,"Change from baseline in UHDRS TFC Finance ADL, Δ to placebo","90 mg bid, Week 26, Stage 1 BL TFC 11-13",0.97
same,"Change from baseline in UHDRS TFC Finance ADL, Δ to placebo","90 mg bid, Week 26, Stage 2 BL TFC 7-10 (FIG. 11c)",0.3
same,"Change from baseline in UHDRS TFC Finance ADL, Δ to placebo","90 mg bid, Week 26, Stage 2 BL TFC 7-10 (FIG. 11f)",0.56
same,"Change from baseline in UHDRS TFC Finance ADL, Δ to placebo","90 mg bid, Week 52, ALL",0.17
same,"UHDRS TFC Finance ADL, change from baseline, Δ to placebo","90 mg bid, Week 52, BL TFC<7, p value 0.4368",−0.29
same,"UHDRS TFC Finance ADL, change from baseline, Δ to placebo","90 mg bid, Week 52, BL TFC≥7, p value 0.0088",0.53
same,"Change from baseline in UHDRS TFC Finance ADL, Δ to placebo","90 mg bid, Week 52, Stage 1 BL TFC 11-13",0.4
same,"Δ to placebo: UHDRS TFC Finance and ADL score, change from baseline","112.5 mg bid, BL CAG Repeat >44, week 26",0.47
same,"Δ to placebo: UHDRS TFC Finance and ADL score, change from baseline","112.5 mg bid, BL TFC≥9, week 26",0.57
same,"Δ to placebo: UHDRS TFC Finance and ADL score, change from baseline","112.5 mg bid, BL TFC≥9 and BL TMS 1st 3 Qs, week 26",0.54
same,"Δ to placebo: UHDRS TFC Finance and ADL score, change from baseline","112.5 mg bid, BL TFC≥9 and CAG Repeat >44, week 26",1.02
same,"Δ to placebo: UHDRS TFC Finance and ADL score, change from baseline","112.5 mg bid, BL TFC≥9 and CAG Repeats <44 and BL TMS 1st 3 Qs, week 26",1.08
same,"Δ to placebo: UHDRS TFC Finance and ADL score, change from baseline","112.5 mg bid, BL TFC≥9 or CAG Repeat >44, week 26",0.4
same,"Δ to placebo: UHDRS TFC Finance and ADL score, change from baseline","112.5 mg bid, CAG Repeats <44 and BL TMS 1st 3 Qs, week 26",0.57
same,"Δ to placebo: UHDRS TFC Finance and ADL score, change from baseline","112.5 mg bid, TMS 1st 2Qs, week 26",0.19
same,"Δ to placebo: UHDRS TFC Finance and ADL score, change from baseline","112.5 mg bid, TMS 1st 2Qs, week 52",0.44
same,"Δ to placebo: UHDRS TFC Finance and ADL score, change from baseline","112.5 mg bid, TMS 1st 3Qs, week 26",0.41
same,"Δ to placebo: UHDRS TFC Finance and ADL score, change from baseline","112.5 mg bid, TMS 1st 3Qs, week 52",0.09
same,"Δ to placebo: UHDRS TFC Finance and ADL score, change from baseline","112.5 mg bid, TMS 1st Q, week 26",1.1
same,"Δ to placebo: UHDRS TFC Finance and ADL score, change from baseline","112.5 mg bid, TMS 1st Q, week 52",0.74
same,"Change from baseline in UHDRS TFC Finance ADL, Δ to placebo","112.5 mg bid, Week 26, ALL",0.38
same,"UHDRS TFC Finance ADL, change from baseline, Δ to placebo","112.5 mg bid, Week 26, BL TFC<7, p value 0.9361",0.03
same,"UHDRS TFC Finance ADL, change from baseline, Δ to placebo","112.5 mg bid, Week 26, BL TFC≥7, p value 0.0007",0.62
same,"Change from baseline in UHDRS TFC Finance ADL, Δ to placebo","112.5 mg bid, Week 26, Stage 1 BL TFC 11-13",1.12
same,"Change from baseline in UHDRS TFC Finance ADL, Δ to placebo","112.5 mg bid, Week 26, Stage 2 BL TFC 7-10 (FIG. 11c)",0.46
same,"Change from baseline in UHDRS TFC Finance ADL, Δ to placebo","112.5 mg bid, Week 26, Stage 2 BL TFC 7-10 (FIG. 11f)",0.18
same,"Change from baseline in UHDRS TFC Finance ADL, Δ to placebo","112.5 mg bid, Week 52, ALL",0.1
same,"UHDRS TFC Finance ADL, change from baseline, Δ to placebo","112.5 mg bid, Week 52, BL TFC<7, p value 0.5626",−0.22
same,"UHDRS TFC Finance ADL, change from baseline, Δ to placebo","112.5 mg bid, Week 52, BL TFC≥7, p value 0.0841",0.36
same,"Change from baseline in UHDRS TFC Finance ADL, Δ to placebo","112.5 mg bid, Week 52, Stage 1 BL TFC 11-13",0.64

# From patent US11207310B2 (PRILENIA NEUROTHERAPEUTICS LTD., priority 2016, dated 2021)
